Measurements published in patent US4092420A, “Novel soft N-chloroamino alcohol derivatives exhibiting antibacterial activity” (INTERx Research Corporation, priority 1977, dated 1978).
Converted amounts (≈) assume the structure as drawn.

What was measured:
S. epidermidis = experiment: Contact germicidal efficiency (sterilization time); format: cell-based, Staphylococcus epidermidis; details: Example Z; S. pidermidis; pH 4.6; absence of horse serum; IV j 79 ppm (21 PPMCl+), IV k 5800 (1057), IV l 1112 (209)
Experimental: (§1) CONTACT GERMICIDAL EFFICIENCY OF N-CHLORAMINES AS A FUNCTION
(§2) ^a Time intervals screened 0.5, 1, 2, 3, 4 and 5 minutes.
(§3) ^a Time intervals screened 0.5, 1, 2, 3, 4, 5, 6, 7, 8, 9 and 10
(§4) ^a Time intervals screened 0.5, 1, 2, 3, 4, and 5 minutes.
(§5) ^b Time intervals screened 0.5, 1, 2, 3, 4, 5, 6, 7, 8, 9 and 10
(§6) Immediately preceding the screen, the compound is weighed and diluted with a buffer or other solvent to give the final concentration desired. The buffer or solvent chosen depends on the conditions of the screen and could be one of the following: 0.1 M NaOAc, pH 4.6; 0.1 M NaH2 PO4, pH 7.0; 0.1 M Na2 B4 O7, pH 8.8; 35% methanol in one of the aforementioned buffers; 10% Triton × 100 in buffer, etc.
(§7) The positive chlorine concentration of the test solution is then determined iodometrically.
(§8) Media used for the Screen are Nutrient Broth, BBL# 11479 and Nutrient Agar, BBL# 11472 prepared according to label directions. The broth is dispensed in 75 ml amounts of flasks for overnight cultures and in 5 ml amounts to culture tubes for subculturing during the Screen. Agar plates are prepared as usual.
(§9) Overnight cultures are prepared by inoculating from stock cultures into the 75 ml flasks of nutrient broth and incubating for 15 hours at 37° C.
(§10) The iodometrically characterized test solution is dispensed in 5 ml amounts to seven small stoppered flasks. The organisms are screened one at a time as follows:
(§11) A 0.2 ml portion of the overnight culture is inoculated into 5 ml of 0.9% NaCl for use in controls. A 0.2 ml portion of the overnight culture is inoculated into a flask containing 5 ml of the test solution, an automatic timer is simultaneously triggered and the solution mixed. At time intervals of 30 seconds, 1, 2, 3, 4, 5, 6, 7, 8, 9, and 10 minutes a loopful of the inoculated solution is subcultured into 5 ml of sterile nutrient broth and mixed by a Vortex Genie Mixer, the high dilution serving to stop the action of the compound. At the end of the ten minute screen, the entire procedure is repeated for each of the remaining six organisms. All of the subculture tubes are incubated at 37° C and checked for signs of growth by turbidity at 24 hr., 48 hr., 3, 5, and 7 days. The earliest subculture time at which no growth is present in the subculture tube is considered the endpoint and is recorded as that time, e.g., 7 minutes.
(§12) The test solution is prepared and characterized as above but is made up at twice the concentration desired. The solution is diluted 1:1 with Rehydrated Tissue Culture Dessicated Horse Serum, Difco #5357-72 and dispensed in a 5 ml amount to a small flask. The mixture is incubated at Room Temperature for 30 minutes to allow denaturation of the compound by the serum and then screened as above.
(§13) The 5 ml mixture of serum and test solution are prepared in sequence to allow as close to 30 minutes as possible before the beginning of the screen of each organism.
(§14) Bacteria: Staphylococcus aureas Smith (or 209), Escherichia coli AB 1932-1, 1100/B22 and Vogel, Streptococcus pyogenes C203 Salmonella typhimurium 14028, Bacillus subtilis 6051-1, Klebsiella pneumoniae 10031, Pseudomonas aeruginosa 9027, Bordetella bronchiseptica 4617 and Staphylococcus epidermidis 12228.

K. pneumoniae [1] = experiment: Contact germicidal efficiency (sterilization time); format: cell-based, Klebsiella pneumoniae; details: Example Z, pH 4.6, absence of horse serum, IV j 79 ppm (21 PPMCl+), IV k 5800 (1057), IV l 1112 (209)
Experimental: as §1, §2, §3, §4, §5, §6, §7, §8, §9, §10, §11, §12, §13, §14

P. aeruginosa [2] = experiment: Contact germicidal efficiency (sterilization time); format: cell-based, Pseudomonas aeruginosa; details: Example Z, pH 4.6, absence of horse serum, IV j 79 ppm (21 PPMCl+), IV k 5800 (1057), IV l 1112 (209)
Experimental: as §1, §2, §3, §4, §5, §6, §7, §8, §9, §10, §11, §12, §13, §14

B. bronchiseptica = experiment: Contact germicidal efficiency (sterilization time); format: cell-based, Bordetella bronchiseptica; details: Example Z, pH 4.6, absence of horse serum, IV j 79 ppm (21 PPMCl+), IV k 5800 (1057), IV l 1112 (209)
Experimental: as §1, §2, §3, §4, §5, §6, §7, §8, §9, §10, §11, §12, §13, §14

P. aeruginosa [3] = experiment: Minimal inhibitory concentration (MIC), Example V; format: cell-based; details: Pseudomonas aeruginosa
Experimental: (§15) THE ANTIBACTERIAL SCREEN - EXAMPLE V
(§16) THE ANTIBACTERIAL SCREEN - EXAMPLES W - Z (Autotiter IV)
(§17) (a) Compounds. All compounds to be screened are weighed (approx. 10 mg) on the day preceding the test date. Each compound is solubilized on the day of assay in appropriate solvent and diluted automatically in the Autotiter IV with distilled water (buffer can be employed here also).
as §14
(§18) (c) Inocula. Prior to utilization in the Autotiter IV, all bacteria are cultured for 18-20 hr. (37° C) in tryptose phosphate broth (TP), except, S. pyogenes C203, which is cultured in Brain Heart Infusion broth plus 10% normal horse serum. Immediately prior to testing, each culture is adjusted to an optical density of 0.10 (650 nm), employing a Bausch & Lomb Spectronic 20, and diluted subsequently into double strength medium to approximately 2 × 10^5 viable organisms per ml.
(§19) 1. An automated injector system dispenses 0.05 ml of diluent (sterile H2 O or buffer) to all cups of the autotiter trays from rows 2 through 7.
(§20) 2. The loops (for sequential dilutions of the compounds are moistened by immersion into 70% ethyl alcohol. After removal of excess alcohol by blotting, the loops are moved to the first row of cups in the autotray containing 0.10 ml of the compound to be diluted and tested (usually, this initial concentration is 500 to 1000 mcg/ml, but can be varied upward or downward). The loops are lowered and sequentially transfer the diluted solutions of the compound through row 7.
(§21) Immediately after each dilution is made, each cup is automatically inoculated with 0.05 ml of the appropriate test organism. This inoculation derives from a second injector system containing the organism in double-strength medium. The total operation consists of the automatic dilution of a single compound in each of 8 rows of the Autotiter try.
(§22) After these operations, we reverse the tray and a second compound is diluted over the other one-half of the tray and inoculated, subsequently, with 8 organisms. Thus, for each Autotiter Tray, two compounds are screened against 8 different organisms at dilutions ranging from 1:2 to 1:128.
(§23) (e) Incubation. The inoculated Autotiter trays are incubated at 37° C for 18 - 20 hr. At the end of this period, each tray is examined for the presence or absence of growth (turbidity). The lowest concentration of the compound inhibiting growth is recorded as the minimal inhibitory concentration (MIC).

S. aureus = experiment: Minimal inhibitory concentration (MIC), Example V; format: cell-based; details: Staphylococcus aureus
Experimental: as §15, §16, §17, §14, §18, §19, §20, §21, §22, §23

S. pyogenes = experiment: Minimal inhibitory concentration (MIC), Example V; format: cell-based; details: Streptococcus pyogenes
A. niger = experiment: Minimal inhibitory concentration (MIC), Example V; format: cell-based; details: Aspergillus niger
Text: (§24) MINIMAL INHIBITORY CONCENTRATION OF 2-AMINO-2-METHYL-1-PROPYL
(§25) ^a Minimal inhibitory concentration expressed in parts per million
(§26) sequence inhibited the test organism at the higher concentrations.
as §15

E. coli = experiment: Minimal inhibitory concentration (MIC), Example V; format: cell-based; details: Escherichia coli
Text: as §24, §25, §26, §15

T. mentagrophytes = experiment: Minimal inhibitory concentration (MIC), Example V; format: cell-based; details: Trichophyton mentagrophytes
Text: as §24, §25, §26, §15

K. pneumoniae [4] = experiment: Minimal inhibitory concentration (MIC), Example V; format: cell-based; details: Klebsiella pneumoniae
Experimental: as §24, §25, §26, §15
Klebsiella pneumoniae ATCC# 10031
as §16, §17, §14, §18, §19, §20, §21, §22, §23

C. albicans = experiment: Minimal inhibitory concentration (MIC), Example V; format: cell-based; details: Candida albicans
Text: MINIMAL INHIBITORY CONCENTRATION OF 2-AMINO-2-METHYL-1-PROPYL […]
as §15

[5] = Solubility in 30% methanol: 0.1 M sodium dihydrogen phosphate, pH 7.0; format: physicochemical; details: 0.1 m nah2po4, pH 7, organic solvent or mixture, Concentration (footnote: Solubility in 30% methanol: 0.1 M sodium dihydrogen phosphate, pH 7.0)

Structure (SMILES) | Sterilization Time (S. epidermidis) [min] | Sterilization Time (K. pneumoniae [1]) [min] | Sterilization Time (P. aeruginosa [2]) [min] | Sterilization Time (B. bronchiseptica) [min] | MIC (P. aeruginosa [3]) [µg/mL] | MIC (S. aureus) [µg/mL] | MIC (S. pyogenes) [µg/mL] | MIC (A. niger) [µg/mL] | MIC (E. coli) [µg/mL] | MIC (T. mentagrophytes) [µg/mL] | MIC (K. pneumoniae [4]) [µg/mL] | MIC (C. albicans) [µg/mL] | solubility [5] [µg/mL]
C[n+]1cccc(C(=O)OCC(C)(C)N(Cl)Cl)c1 [IV l, 2-N,N-Dichloroamino-2-methyl-1-propyl nicotinate methylfluorosulfonate] | 3 | 5 | 3 | 5 | – | – | – | – | – | – | – | – | –
CCCCCC(=O)OCC(C)(C)N.Cl [III d, 2-Amino-2-methyl-1-propyl hexanoate hydrochloride] | – | – | – | – | 62.5 | > 62.5 | 62.5 | > 62.5 | > 62.5 | > 62.5 | > 62.5 | > 62.5 | 1040
CCCCCCCC(=O)OCC(C)(C)NCl [IV e, 2-N-Chloroamino-2-methyl-1-propyl octanoate] | – | – | – | – | > 62.5 | > 62.5 | > 62.5 | > 62.5 | > 62.5 | > 62.5 | > 62.5 | > 62.5 | –
CCCCCCCC(=O)OCC(C)(C)N(Cl)Cl [IV i, 2-N,N-Dichloroamino-2-methyl-1-propyloctanoate] | – | – | – | – | > 62.5 | 62.5 (≈ 220 µM) | 62.5 (≈ 220 µM) | > 62.5 | > 62.5 | 62.5 (≈ 220 µM) | > 62.5 | > 62.5 | –
CCCC(=O)OCC(C)(C)N(Cl)Cl [IV f, 2-N,N-Dichloroamino-2-methyl-1-propyl butyrate] | – | – | – | – | 62.5 (≈ 274 µM) | > 62.5 | 62.5 (≈ 274 µM) | > 62.5 | > 62.5 | > 62.5 | > 62.5 | > 62.5 | –
CCCC(=O)OCC(C)(C)NCl [IV b, 2-N-Chloroamino-2-methyl-1-propyl butyrate] | – | – | – | – | > 62.5 | > 62.5 | > 62.5 | > 62.5 | > 62.5 | > 62.5 | > 62.5 | > 62.5 | –
